Reference: patent US20100113272A1, “HERBICIDAL COMPOSITION AND METHOD OF USE THEREOF” (SYNGENTA CORP PROTECTION, INC., priority 2006, published 2010)

Legend:
[1] = test system: large crabgrass; assay: Glasshouse trial, control of large crabgrass, mesotrione and prodiamine spray applied pre-emergence; assay type: in vivo, Digitaria sanguinalis; conditions: for control of large crabgrass on its own: spray pre-emergence, 7 DAT
Experimental: A glasshouse trial was carried out. Large crabgrass seeds were sown into standard glasshouse potting mix (1:1 v/v Promix:Vero sand soil) contained in 10 cm square plastic pots. Treatments were replicated three times. Mesotrione (in the form Callisto® 480SE) was applied pre-emergence to large crabgrass at either 12 g ai/ha or 24 g ai/ha with or without prodiamine (in the form Barricade® 4FL). When used, prodiamine was applied at a rate of 53 g ai/ha or 105 g ai/ha. The adjuvant system was X-77 at 0.1% v/v in deionised water. 200 litres of herbicide/adjuvant system was used per hectare. General weed control was evaluated at 7 and 14 days after treatment (DAT).
It is noted that control of large crabgrass with mesotrione alone applied pre-emergence at the higher rate (24 g ai/ha) was high; thus it was not possible to detect synergy when mesotrione was mixed with prodiamine. […] The results were evaluated using the Colby formula. The expected result for (A+B) is (A+B)−(A×B/100) where A and B are the ‘observed’ results for A and B on their own.

[2] = test system: large crabgrass (Digitaria sanguinalis); assay: Glasshouse trial, control of large crabgrass, mesotrione and prodiamine spray applied post-emergence; assay type: in vivo; conditions: for control of large crabgrass on its own: spray post-emergence, 14 DAT
Experimental: A glasshouse trial was carried out. Large crabgrass seeds were sown into standard glasshouse potting mix (1:1 v/v Promix:Vero sand soil) contained in 10 cm square plastic pots. Treatments were replicated three times. Mesotrione (in the form Callisto® 480SE) was applied post-emergence to large crabgrass (Digitaria sanguinalis) at either 12 g ai/ha or 24 g ai/ha with or without prodiamine (in the form Barricade® 4FL). When used, prodiamine was applied at a rate of 210 g ai/ha or 420 g ai/ha. The adjuvant system was X-77 at 0.1% v/v in deionised water. 200 litres of herbicide/adjuvant system was used per hectare. General weed control was evaluated at 7 and 14 days after treatment (DAT). It is noted that all herbicides were applied at reduced field rates because herbicide effects are magnified in a glasshouse environment. Rates were chosen to give a 50 to 70% level of control with herbicides applied alone as this allows for detection of any synergistic effect when tank mixtures are used.
The results were evaluated using the Colby formula. The expected result for (A+B) is (A+B)−(A×B/100) where A and B are the ‘observed’ results for A and B on their own.

Structure (SMILES)	control of large crabgrass on its own ([1]; prodiamine alone, 105 g ai/ha) [%]	control of large crabgrass on its own ([2]; prodiamine alone, 210 or 420 g ai/ha)	control of large crabgrass on its own ([1]; mesotrione alone, 12 g ai/ha) [%]	control of large crabgrass with mesotrione alone ([1]; pre-emergence at the higher rate (24 g ai/ha))	control of large crabgrass on its own ([2]; mesotrione alone at the higher rate (24 g ai/ha)) [%]	control of large crabgrass on its own ([2]; mesotrione alone at the lower rate (12 g ai/ha)) [%]	control of large crabgrass with mesotrione alone ([2]; post-emergence, 7 DAT)
CCCN(CCC)c1c([N+](=O)[O-])cc(C(F)(F)F)c(N)c1[N+](=O)[O-] [Prodiamine, N^3,N^3-di-n-propyl-2,4-dinitro-6-(trifluoromethyl)-m-phenylenediamine]	76	no control	–	–	–	–	–
CS(=O)(=O)c1ccc(C(=O)C2C(=O)CCCC2=O)c([N+](=O)[O-])c1 [Mesotrione, 2-(2′-nitro-4′-methylsulphonylbenzoyl)-1,3-cyclohexanedione]	–	–	50	high	66.7	46.7	relatively high
